Laboratory results from the NIST ThermoML archive (doi:10.1007/s10765-005-8592-5).
Values joined by “and” are separate entries in the source; they are usually repeats but may differ in a detail not shown here. Equal values may be shown once.

Assays:
[1] = xn = mol fraction of the nth substance listed; conditions: Fluid (supercritical or subcritical phases), isochoric method
[2] = molar heat capacity at constant volume; xn = mol fraction of the nth substance listed; conditions: Fluid (supercritical or subcritical phases), Vacuum adiabatic calorimetry

CCC [propane] + CC(C)C
x1 = 1
Conditions	mass density, [1] [kg/m3]	molar heat capacity at constant volume, [2] [J/K/mol]
270.15 K, 4427 kPa	539.9	71.74
275.15 K, 7953 kPa	539.6	71.26
280.15 K, 11458 kPa	539.3	71.3
285.15 K, 14939 kPa	539	72.63
290.15 K, 18398 kPa	538.7	73.46
295.15 K, 21836 kPa	538.4	74.57
300.15 K, 25251 kPa	538.1	74.61
305.15 K, 28640 kPa	537.8	74.35
310.15 K, 6561 kPa	490.3	74.57
315.15 K, 9049 kPa	490.1	75.23
320.15 K, 11532 kPa	489.8	76.15
325.15 K, 3660 kPa	454.8	77.96
325.15 K, 14008 kPa	489.6	76.37
330.15 K, 5594 kPa	454.6	78.75
330.15 K, 16475 kPa	489.3	76.64
335.15 K, 7530 kPa	454.3	78.31
335.15 K, 18934 kPa	489.1	76.9
340.15 K, 9468 kPa	454.1	77.7
340.15 K, 21386 kPa	488.9	77.21
345.15 K, 11404 kPa	453.9	77.26
345.15 K, 23827 kPa	488.6	76.33
350.15 K, 13339 kPa	453.7	79.46
350.15 K, 26253 kPa	488.4	77.52
355.15 K, 15273 kPa	453.5	77.39
355.15 K, 28668 kPa	488.2	77.43
360.15 K, 17203 kPa	453.3	77.74
365.15 K, 19126 kPa	453.1	78.62
370.15 K, 21044 kPa	452.9	79.15
375.15 K, 5095 kPa	301.1	98.6
380.15 K, 5744 kPa	301	93.04
385.15 K, 6404 kPa	300.9	89.6
390.15 K, 7072 kPa	300.8	86.07
395.15 K, 7746 kPa	300.7	84.84
400.15 K, 8425 kPa	300.6	80.43
405.15 K, 9109 kPa	300.5	78.84
410.15 K, 9795 kPa	300.4	79.99
420.15 K, 11176 kPa	300.2	79.81
425.15 K, 11869 kPa	300.1	81.75

CC(C)C [2-methylpropane] + CCC
Conditions	mass density, [1] [kg/m3]	molar heat capacity at constant volume, [2]
270.15 K, 4579 kPa, x2 = 0.498	566.8	82.79 J/K/mol
275.15 K, 8198 kPa, x2 = 0.498	566.3	81.61 J/K/mol
280.15 K, 11759 kPa, x2 = 0.498	565.9	82.79 J/K/mol
285.15 K, 15256 kPa, x2 = 0.498	565.5	84.27 J/K/mol
290.15 K, 18687 kPa, x2 = 0.498	565.1	85.14 J/K/mol
295.15 K, 22038 kPa, x2 = 0.498	564.8	85.81 J/K/mol
300.15 K, 25302 kPa, x2 = 0.498	564.5	87.7 J/K/mol
305.15 K, 28471 kPa, x2 = 0.498	564.2	89.64 J/K/mol
315.15 K, 9748 kPa, x2 = 0.498	524.3	89.39 J/K/mol
320.15 K, 12415 kPa, x2 = 0.498	523.9	91.23 J/K/mol
325.15 K, 15069 kPa, x2 = 0.498	523.6	92.35 J/K/mol
330.15 K, 17709 kPa, x2 = 0.498	523.3	91.89 J/K/mol
335.15 K, 20336 kPa, x2 = 0.498	523	93.07 J/K/mol
340.15 K, 22950 kPa, x2 = 0.498	522.8	92.66 J/K/mol
345.15 K, 25550 kPa, x2 = 0.498	522.5	92.4 J/K/mol
350.15 K, 7962 kPa, x2 = 0.498	471.7	93.89 J/K/mol
350.15 K, 28136 kPa, x2 = 0.498	522.3	93.22 J/K/mol
355.15 K, 9814 kPa, x2 = 0.498	471.4	93.73 J/K/mol
360.15 K, 11663 kPa, x2 = 0.498	471.2	93.73 J/K/mol
365.15 K, 13509 kPa, x2 = 0.498	470.9	93.22 J/K/mol
370.15 K, 15351 kPa, x2 = 0.498	470.7	94.71 J/K/mol
375.15 K, 17187 kPa, x2 = 0.498	470.5	94.19 J/K/mol
380.15 K, 19017 kPa, x2 = 0.498	470.2	95.06 J/K/mol
380.15 K, 20994 kPa, x2 = 0.756	458.6	88.38 J/K/mol
385.15 K, 4713 kPa, x2 = 0.756	279.9	150.35 J/K/mol
385.15 K, 22824 kPa, x2 = 0.756	458.4	90.71 J/K/mol
390.15 K, 5229 kPa, x2 = 0.756	279.8	127.92 J/K/mol
390.15 K, 22647 kPa, x2 = 0.498	469.8	97.67 J/K/mol
395.15 K, 4489 kPa, x2 = 0.498	274.1	183.94 J/K/mol
395.15 K, 5756 kPa, x2 = 0.756	279.7	116.61 J/K/mol
400.15 K, 4949 kPa, x2 = 0.498	274	160.01 J/K/mol
400.15 K, 6290 kPa, x2 = 0.756	279.6	105.82 J/K/mol
405.15 K, 5419 kPa, x2 = 0.498	273.9	144.56 J/K/mol
405.15 K, 6830 kPa, x2 = 0.756	279.6	101.36 J/K/mol
410.15 K, 5896 kPa, x2 = 0.498	273.8	131.68 J/K/mol
410.15 K, 7375 kPa, x2 = 0.756	279.5	96.37 J/K/mol
415.15 K, 4254 kPa, x2 = 0	273.8	230.8 J/K/mol and 222.08 J/K/mol
415.15 K, 6379 kPa, x2 = 0.498	273.7	124.31 J/K/mol
415.15 K, 7922 kPa, x2 = 0.756	279.4	93.23 J/K/mol
420.15 K, 4664 kPa, x2 = 0	273.7	202.67 J/K/mol
420.15 K, 4665 kPa, x2 = 0	273.8	202.96 J/K/mol
420.15 K, 6865 kPa, x2 = 0.498	273.6	115.11 J/K/mol
420.15 K, 8472 kPa, x2 = 0.756	279.3	90.85 J/K/mol
425.15 K, 5082 kPa, x2 = 0	273.7	186.05 J/K/mol
425.15 K, 5083 kPa, x2 = 0	273.7	187.1 J/K/mol
425.15 K, 7354 kPa, x2 = 0.498	273.6	109.18 J/K/mol
